{"source": "patent US20250312365A1", "about": "“METHODS FOR INHIBITION OF SQUAMOUS CARCINOMA CELLS USING CERAMIDE MODULATORS” (The Trustees of Indiana University, priority 2024, published 2025)", "key": {"OECM1 cells": {"tested_on": "OECM1 cells", "experiment": "Untargeted metabolomic pathway analysis (LC/MS) in OECM1 cells", "format": "cell-based, human", "details": "1 μg/ml for 6 h", "excerpt": "(§1) Based on this analysis, at least 5 different cell survival metabolomic pathways, underlined in red were diminished in OSCC (OECM1 and SCC9), but not in healthy epithelial OBA9 cells in response to PGDHC. The 5 pathways were folate metabolism, arginine and proline metabolism, glycine and serine metabolism, de novo triacylglycerol biosynthesis, and mitrochondrial electron transport chain.\nThe plots in FIGS. 16A and 16B display the enriched pathways identified in the analysis, with their corresponding significance levels represented on the x-axis. The significance threshold (p<0.05) is denoted by the dashed line. […] Additionally, the color of the dots represents the enrichment, which indicates the extent to which the metabolites in the pathway were clustered amongst the compounds with the most positive fold-changes (positive enrichments), the most negative fold-changes (negative enrichments), or uniformly distributed across high and low fold-change compounds (enrichment values near 0.0). […] Polar and lipid metabolites were analyzed with hydrophilic interaction chromatography (HILIC/MS) and liquid chromatography (LC/MS), respectively. Mass spectrometry analysis was completed with a mass range of 67-1500 Da with 1 scan/sec and a mass resolution of 120,000 in both positive and negative ionization mode. The MS/MS mass-spectrometry data were acquired in a data-dependent iterative fashion with a 1.3 m/z isolation window. Based upon this metabolomic analysis, phosphoglycerol dihydroceramide (PGDHC) isolated from Porphyromonas gingivalis inhibits metabolomic pathways essential for cell survival in oral squamous cell carcinoma cells (OSCC).\n(§2) The Warburg effect is a metabolic phenomenon observed in many cancer cells, where the cells preferentially use glycolysis metabolism to produce energy instead of oxidative phosphorylation. The Warburg effect is a hallmark of rapid cancer cell growth. Therefore, we evaluated whether PGDHC altered Warburg effect in OSCM1 and SCC9 oral squamous cell carcinoma cells (FIG. 17A), but not healthy epithelial OBA9 cells (FIG. 17B), in vitro. Cells were stimulated with PGDHC (1 μg/ml) for 6 h and the untargeted metabolomic analysis was performed using LC/MS mass-spectrometry. Polar and lipid metabolites were analyzed with HILIC/MS and LC/MS, respectively. Mass spectrometry analysis was completed with a mass range of 67-1500 Da with 1 scan/sec and a mass resolution of 120,000 in both positive and negative ionization mode. MS/MS data were acquired in a data-dependent iterative fashion with a 1.3 m/z isolation window.\nBased upon the impact of PGDHC on the Warburg effect in OSCC cells, we further analyzed the levels of cancer-survival metabolites adenosine triphosphate (ATP) and glucose in the OECM1, SCC9, and OBA9 cells described in Example 11. As shown in FIG. 18A and FIG. 18B, PGDHC altered the levels of both ATP and glucose in OECM1 and SCC9 oral squamous cell carcinoma cells, but not OBA9. The metabolites levels are presented as the relative abundance based on the data presented in FIG. 16 and FIG. 17 heat maps."}, "MMP2 [1]": {"tested_on": "MMP2", "experiment": "MMP2 mRNA expression in SCC4 cells", "format": "cell-based, human", "details": "relative to control cells", "experimental": "Expression of these genes was also assessed in human tongue squamous cell carcinoma SCC4 cells."}, "MMP2 [2]": {"tested_on": "MMP2", "experiment": "MMP2 mRNA expression in OECM1 cells", "format": "cell-based, human", "experimental": "NF-kB, MMP-2, ADAM-17, and IL6 are implicated in the degradation of the expression of genes involved in the cell basement membrane and extracellular matrix of oral squamous cell carcinoma. Accordingly, the expression of NFkB, MMP2, ADAM17, and IL6 in OECM1 cells following exposure to 0.1 μg/ml PGDHC and 1 μg/ml PGDHC was determined.\nSphingosine-1-phosphate (S1P) sphingolipid plays an essential role in the survival, migration, and degradation of the basement membrane and extracellular matrix of oral squamous cell carcinoma (Yura et al., Cancers (Basel). 2020 August; 12(8): 2062). To determine whether PGDHC can inhibit such properties, the combined effects of PGDHC and S1P on OECM1 gene expression was tested in vitro."}, "[3]": {"tested_on": "human gingival squamous carcinoma cells (OECM1)", "experiment": "Cell viability/proliferation assay (WST-1) in OECM1 cells", "format": "cell-based", "details": "each tested concentration (0.1 μg/ml and 1 μg/ml); WST-1", "excerpt": "In specific examples, colorimetric assays can be used to assess cellular viability and proliferation of cell cultures, such as MTT, WST-1, and resazurin assays. See, e.g., Präbst et al., Methods Mol Biol. 2017:1601:1-17.\nVarious cell lines were exposed to PGDHC, including human gingival squamous carcinoma cells (OECM1), tongue squamous carcinoma cells (SCC4, SCC9), and healthy human gingival epithelial control cells (OBA9) in vitro.\nTo elucidate the effects of C16:0 and dh-C16:0 on oral squamous cell carcinoma, the ability of exogenous C16:0 and dh-C16:0 to modulate proliferation and ceramidase expression in OECM1 cells was determined. […] In contrast, no effect of C16:0 on ASAH1 and ACER2 mRNA expressions.\nLCL521 is a dose-dependent acid ceramidase inhibitor. Comparison of the concentration-dependent effects of an acid ceramidase inhibitor, LCL521 (MedChemExpress®), and the bacterial-isolated a15:0-15:0PE phospholipid on the viability of healthy human epithelial, OBA9, and oral squamous cancer cell lines, OECM1 and SCC9, in vitro was evaluated. […] (FIG. 15A). […] (FIG. 15B)."}, "[4]": {"tested_on": "healthy epithelial OBA9 cells", "experiment": "Untargeted metabolomic pathway analysis (LC/MS) in healthy OBA9 cells", "format": "cell-based, human", "details": "1 μg/ml for 6 h", "excerpt": "as §1\nas §2, with “Mass spectrometry analysis was completed with a mass range of 67-1500 Da with 1 scan/sec and a mass resolution of 120,000 in both positive and negative ionization mode. MS/MS data were acquired in a data-dependent iterative fashion with a 1.3 m/z isolation window.” left out\nBased upon the impact of PGDHC on the Warburg effect in OSCC cells, we further analyzed the levels of cancer-survival metabolites adenosine triphosphate (ATP) and glucose in the OECM1, SCC9, and OBA9 cells described in Example 11. […]"}}, "note": "“Also recorded” adds a separate entry of the source."}
{"substance": "phosphoglycerol dihydroceramide [PGDHC]", "values": [{"measurement": "Warburg effect in OECM1 cells", "setting": "OECM1 cells", "result": "altered"}, {"measurement": "arginine and proline metabolism in OECM1 cells", "setting": "OECM1 cells", "result": "diminished accumulation; also recorded: inhibits"}, {"measurement": "de novo triacylglycerol biosynthesis in OECM1 cells", "setting": "OECM1 cells", "result": "diminished accumulation; also recorded: inhibits"}, {"measurement": "folate metabolism in OECM1 cells", "setting": "OECM1 cells", "result": "diminished accumulation; also recorded: inhibits"}, {"measurement": "glycine and serine metabolism in OECM1 cells", "setting": "OECM1 cells", "result": "diminished accumulation; also recorded: inhibits"}, {"measurement": "level of ATP in OECM1 cells (relative abundance)", "setting": "OECM1 cells", "result": "altered"}, {"measurement": "level of glucose in OECM1 cells (relative abundance)", "setting": "OECM1 cells", "result": "altered"}, {"measurement": "mitochondrial electron transport in OECM1 cells", "setting": "OECM1 cells", "result": "diminished accumulation; also recorded: inhibits"}, {"measurement": "MMP2 mRNA in SCC4 cells", "setting": "MMP2 [1]", "result": "significantly diminished"}, {"measurement": "expression of MMP2 mRNA in OECM1 cells", "setting": "MMP2 [2]; 1 μg/ml", "result": "significantly inhibited"}, {"measurement": "MMP2 mRNA levels in OECM1 cells exposed to S1P", "setting": "MMP2 [2]; in combination with S1P", "result": "a significant effect was not observed"}, {"measurement": "viability of OECM1 cells", "setting": "[3]", "result": "significantly inhibited"}, {"measurement": "Warburg effect in healthy OBA9 cells", "setting": "[4]", "result": "no effect"}]}
